The test deals with mammary gland carcinogenesis induced by 17 β-estradiol (E2). In words: Estrogen (E2 pellet)-induced mammary carcinogenesis in female ACI rats. It is filed as in vivo. To be noted: for survival rate: control 100%, placebo 0%. From the text: This study indicates the preventative effects of Methyl Sulfonyl Methane (MSM), processed Morinda citrifolia products (e.g., Tahitian Noni juice), and their combination on estrogen-induced mammary carcinogenesis in female ACI rats.
In the study, the preventative effects of MSM, Morinda citrifolia, and their combination on mammary gland carcinogenesis induced by 17 β-estradiol (estrogen)(E2) pellet implants in female ACI rats was studied. In the experiment, sixty (60), five week old female rats were divided into four groups, fifteen (15) rats each, and placed on regular diets. Another eight (8) female ACI rats were served as the age-matched controls. Five percent placebo, five percent Morinda citrifolia, five percent MSM, a combination of five percent Morinda citrifolia and MSM in drinking water was supplied to the animals in different groups until ninety days after E2 implantation. Two weeks later, all animals were implanted subcutaneously with a 25 mg pellet containing 22.5 mg of 17 β-estradiol (e2) mixed with 2.5 mg cholesterol, and the age-matched control animals received a 25 mg cholesterol pellet implant.

Turning to `CS(C)(=O)=O` [MSM, Methyl Sulfonyl Methane], the body weight loss entry (5% in drinking water, E2-implanted female ACI rats, placebo group had significant loss vs cholesterol control) is “slight body weight loss”. Further, the “percent of the rats with mammary tumors” value (5% in drinking water, E2 implant, placebo group one hundred percent) is recorded as “fifty-seven”. For the same molecule, the “number of tumors per rat” value (5% in drinking water, E2 implant, placebo group three to seven) is reported as “one to four”. Further, the survival rate runs as follows: (160 days after E2 implantation) 73%; (180 days after E2 implantation) 20%; (200 days after E2 implantation) 0%. Also, the average tumor area (180 days after E2 implantation, placebo 17) amounted to 12 mm2.

Source of the values: US20030157205A1, “Inhibitory and preventative effects of processed morinda citrifolia on mutagenesis and carcinogenesis in mammals” (priority 2001, published 2003).
